{"source": "patent US10286034B2", "about": "“Uses of bremelanotide in therapy for female sexual dysfunction” (Palatin Technologies, Inc., priority 2012, dated 2019)", "key": {"[1]": {"assay": "Example 1: adverse events and discontinuations during double-blind treatment", "type": "in vivo, human", "method": "A multi-centered, placebo-controlled, randomized, parallel group trial with fixed dose levels and designed to identify appropriate doses of bremelanotide administered by subcutaneous injection in premenopausal females with FSAD and/or HSDD, under the conditions of home use, was conducted. Subjects received a single dose of placebo (subject-blinded) in-clinic followed by 4 weeks of subject-blinded placebo treatment at home (subjects self-administered treatment as needed). Subjects who continued to qualify for the trial then received 2 single in-clinic doses of randomized treatment (double-blind; approximately one week apart), followed by 12 weeks of double-blind treatment at home (subjects self-administered treatment as needed).\nRandomization occurred immediately prior to the first in-clinic dose of double-blind treatment. Study drug and placebo was provided as pre-filled syringes in 0.3 mL volume, with subjects instructed on self-administration into the anterior thigh or abdomen."}, "[2]": {"assay": "Subcutaneous trials in males: vomiting and tolerability", "type": "in vivo, human", "conditions": "for subjects experiencing vomiting (mild or moderate): males"}, "[3]": {"system": "female rats", "conditions": "cited from earlier work"}}}
{"smiles": "CCCC[C@H](NC(C)=O)C(=O)N[C@H]1CC(=O)NCCCC[C@@H](C(=O)O)NC(=O)[C@H](Cc2c[nH]c3ccccc23)NC(=O)[C@H](CCCNC(=N)N)NC(=O)[C@@H](Cc2ccccc2)NC(=O)[C@H](Cc2c[nH]cn2)NC1=O", "note": "[bremelanotide, Ac-Nle-cyclo(-Asp-His-D-Phe-Arg-Trp-Lys)-OH]", "values": [{"measurement": "patients discontinued based on adverse events", "setting": "[1]; 0.75 mg", "result": 2}, {"measurement": "patients discontinued based on preset blood pressure change criterion", "setting": "[1]; 0.75 mg", "result": 4}, {"measurement": "Any adverse event leading to withdrawal, number of subjects", "setting": "[1]; 0.75 mg SC (N = 100)", "result": 2}, {"measurement": "Any adverse event leading to withdrawal, percent of subjects", "setting": "[1]; 0.75 mg SC (N = 100)", "result": "(2%)"}, {"measurement": "Any adverse event, number of subjects", "setting": "[1]; 0.75 mg SC (N = 100)", "result": 64}, {"measurement": "Any adverse event, percent of subjects", "setting": "[1]; 0.75 mg SC (N = 100)", "result": "(64%)"}, {"measurement": "Flushing leading to withdrawal, number of subjects", "setting": "[1]; 0.75 mg SC (N = 100)", "result": 0}, {"measurement": "Flushing, number of subjects", "setting": "[1]; 0.75 mg SC (N = 100)", "result": 17}, {"measurement": "Flushing, percent of subjects", "setting": "[1]; 0.75 mg SC (N = 100)", "result": "(17%)"}, {"measurement": "Headache, number of subjects", "setting": "[1]; 0.75 mg SC (N = 100)", "result": 9}, {"measurement": "Headache, percent of subjects", "setting": "[1]; 0.75 mg SC (N = 100)", "result": "(9%)"}, {"measurement": "Hypertension leading to withdrawal, number of subjects", "setting": "[1]; 0.75 mg SC (N = 100)", "result": 2}, {"measurement": "Hypertension leading to withdrawal, percent of subjects", "setting": "[1]; 0.75 mg SC (N = 100)", "result": "(2%)"}, {"measurement": "Injection-site pain, number of subjects", "setting": "[1]; 0.75 mg SC (N = 100)", "result": 6}, {"measurement": "Injection-site pain, percent of subjects", "setting": "[1]; 0.75 mg SC (N = 100)", "result": "(6%)"}, {"measurement": "Injection-site pruritus, number of subjects", "setting": "[1]; 0.75 mg SC (N = 100)", "result": 4}, {"measurement": "Injection-site pruritus, percent of subjects", "setting": "[1]; 0.75 mg SC (N = 100)", "result": "(4%)"}, {"measurement": "Nausea leading to withdrawal, number of subjects", "setting": "[1]; 0.75 mg SC (N = 100)", "result": 0}, {"measurement": "Nausea, number of subjects", "setting": "[1]; 0.75 mg SC (N = 100)", "result": 18}, {"measurement": "Nausea, percent of subjects", "setting": "[1]; 0.75 mg SC (N = 100)", "result": "(18%)"}, {"measurement": "Upper respiratory tract infection, number of subjects", "setting": "[1]; 0.75 mg SC (N = 100)", "result": 8}, {"measurement": "Upper respiratory tract infection, percent of subjects", "setting": "[1]; 0.75 mg SC (N = 100)", "result": "(8%)"}, {"measurement": "Vomiting leading to withdrawal, number of subjects", "setting": "[1]; 0.75 mg SC (N = 100)", "result": 0}, {"measurement": "patients discontinued based on adverse events", "setting": "[1]; 1.25 mg", "result": 4}, {"measurement": "patients discontinued based on preset blood pressure change criterion", "setting": "[1]; 1.25 mg", "result": 9}, {"measurement": "Any adverse event leading to withdrawal, number of subjects", "setting": "[1]; 1.25 mg SC (N = 99)", "result": 4}, {"measurement": "Any adverse event leading to withdrawal, percent of subjects", "setting": "[1]; 1.25 mg SC (N = 99)", "result": "(4%)"}, {"measurement": "Any adverse event, number of subjects", "setting": "[1]; 1.25 mg SC (N = 99)", "result": 61}, {"measurement": "Any adverse event, percent of subjects", "setting": "[1]; 1.25 mg SC (N = 99)", "result": "(62%)"}, {"measurement": "Flushing leading to withdrawal, number of subjects", "setting": "[1]; 1.25 mg SC (N = 99)", "result": 1}, {"measurement": "Flushing leading to withdrawal, percent of subjects", "setting": "[1]; 1.25 mg SC (N = 99)", "result": "(1%)"}, {"measurement": "Flushing, number of subjects", "setting": "[1]; 1.25 mg SC (N = 99)", "result": 14}, {"measurement": "Flushing, percent of subjects", "setting": "[1]; 1.25 mg SC (N = 99)", "result": "(14%)"}, {"measurement": "Headache, number of subjects", "setting": "[1]; 1.25 mg SC (N = 99)", "result": 9}, {"measurement": "Headache, percent of subjects", "setting": "[1]; 1.25 mg SC (N = 99)", "result": "(9%)"}, {"measurement": "Hypertension leading to withdrawal, number of subjects", "setting": "[1]; 1.25 mg SC (N = 99)", "result": 0}, {"measurement": "Injection-site pain, number of subjects", "setting": "[1]; 1.25 mg SC (N = 99)", "result": 6}, {"measurement": "Injection-site pain, percent of subjects", "setting": "[1]; 1.25 mg SC (N = 99)", "result": "(6%)"}, {"measurement": "Injection-site pruritus, number of subjects", "setting": "[1]; 1.25 mg SC (N = 99)", "result": 4}, {"measurement": "Injection-site pruritus, percent of subjects", "setting": "[1]; 1.25 mg SC (N = 99)", "result": "(4%)"}, {"measurement": "Nausea leading to withdrawal, number of subjects", "setting": "[1]; 1.25 mg SC (N = 99)", "result": 0}, {"measurement": "Nausea, number of subjects", "setting": "[1]; 1.25 mg SC (N = 99)", "result": 22}, {"measurement": "Nausea, percent of subjects", "setting": "[1]; 1.25 mg SC (N = 99)", "result": "(22%)"}, {"measurement": "Upper respiratory tract infection, number of subjects", "setting": "[1]; 1.25 mg SC (N = 99)", "result": 5}, {"measurement": "Upper respiratory tract infection, percent of subjects", "setting": "[1]; 1.25 mg SC (N = 99)", "result": "(5%)"}, {"measurement": "Vomiting leading to withdrawal, number of subjects", "setting": "[1]; 1.25 mg SC (N = 99)", "result": 1}, {"measurement": "Vomiting leading to withdrawal, percent of subjects", "setting": "[1]; 1.25 mg SC (N = 99)", "result": "(1%)"}, {"measurement": "patients discontinued based on adverse events", "setting": "[1]; 1.75 mg", "result": 8}, {"measurement": "patients discontinued based on preset blood pressure change criterion", "setting": "[1]; 1.75 mg", "result": 7}, {"measurement": "Any adverse event leading to withdrawal, number of subjects", "setting": "[1]; 1.75 mg SC (N = 98)", "result": 8}, {"measurement": "Any adverse event leading to withdrawal, percent of subjects", "setting": "[1]; 1.75 mg SC (N = 98)", "result": "(8%)"}, {"measurement": "Any adverse event, number of subjects", "setting": "[1]; 1.75 mg SC (N = 98)", "result": 67}, {"measurement": "Any adverse event, percent of subjects", "setting": "[1]; 1.75 mg SC (N = 98)", "result": "(68%)"}, {"measurement": "Flushing leading to withdrawal, number of subjects", "setting": "[1]; 1.75 mg SC (N = 98)", "result": 1}, {"measurement": "Flushing leading to withdrawal, percent of subjects", "setting": "[1]; 1.75 mg SC (N = 98)", "result": "(1%)"}, {"measurement": "Flushing, number of subjects", "setting": "[1]; 1.75 mg SC (N = 98)", "result": 17}, {"measurement": "Flushing, percent of subjects", "setting": "[1]; 1.75 mg SC (N = 98)", "result": "(17%)"}, {"measurement": "Headache, number of subjects", "setting": "[1]; 1.75 mg SC (N = 98)", "result": 14}, {"measurement": "Headache, percent of subjects", "setting": "[1]; 1.75 mg SC (N = 98)", "result": "(14%)"}, {"measurement": "Hypertension leading to withdrawal, number of subjects", "setting": "[1]; 1.75 mg SC (N = 98)", "result": 1}, {"measurement": "Hypertension leading to withdrawal, percent of subjects", "setting": "[1]; 1.75 mg SC (N = 98)", "result": "(1%)"}, {"measurement": "Injection-site pain, number of subjects", "setting": "[1]; 1.75 mg SC (N = 98)", "result": 7}, {"measurement": "Injection-site pain, percent of subjects", "setting": "[1]; 1.75 mg SC (N = 98)", "result": "(7%)"}, {"measurement": "Injection-site pruritus, number of subjects", "setting": "[1]; 1.75 mg SC (N = 98)", "result": 6}, {"measurement": "Injection-site pruritus, percent of subjects", "setting": "[1]; 1.75 mg SC (N = 98)", "result": "(6%)"}, {"measurement": "Nausea leading to withdrawal, number of subjects", "setting": "[1]; 1.75 mg SC (N = 98)", "result": 3}, {"measurement": "Nausea leading to withdrawal, percent of subjects", "setting": "[1]; 1.75 mg SC (N = 98)", "result": "(3%)"}, {"measurement": "Nausea, number of subjects", "setting": "[1]; 1.75 mg SC (N = 98)", "result": 24}, {"measurement": "Nausea, percent of subjects", "setting": "[1]; 1.75 mg SC (N = 98)", "result": "(24%)"}, {"measurement": "Upper respiratory tract infection, number of subjects", "setting": "[1]; 1.75 mg SC (N = 98)", "result": 4}, {"measurement": "Upper respiratory tract infection, percent of subjects", "setting": "[1]; 1.75 mg SC (N = 98)", "result": "(4%)"}, {"measurement": "Vomiting leading to withdrawal, number of subjects", "setting": "[1]; 1.75 mg SC (N = 98)", "result": 3}, {"measurement": "Vomiting leading to withdrawal, percent of subjects", "setting": "[1]; 1.75 mg SC (N = 98)", "result": "(3%)"}, {"measurement": "subjects discontinuing due to an adverse event", "setting": "[1]; 1.75 mg subcutaneous dose", "result": 8, "unit": "%"}, {"measurement": "tolerability during the trial", "setting": "[1]; 0.75-1.75 mg SC", "result": "well-tolerated"}, {"measurement": "serious adverse events considered related to treatment", "setting": "[1]; of 7 serious adverse events", "result": "none"}, {"measurement": "subjects experiencing vomiting (mild or moderate)", "setting": "[2]; 7.5 mg dose level", "result": "1 of 6"}, {"measurement": "subjects experiencing vomiting (mild or moderate)", "setting": "[2]; 5-mg dose level", "result": "1 of 6"}, {"measurement": "subjects experiencing vomiting (mild or moderate)", "setting": "[2]; 10-mg dose level", "result": "3 of 6"}, {"measurement": "tolerability", "setting": "[2]; single subcutaneous doses of 4 and 6 mg, male subjects with ED and preexisting hypertension", "result": "improved tolerability"}, {"measurement": "effect on sexual behavior", "setting": "[3]", "result": "selective pharmacological effect on appetitive sexual behavior"}, {"measurement": "Fos induction", "setting": "[3]; subcutaneous injections", "result": "inducing the immediate-early gene product Fos in a variety of limbic and hypothalamic structures"}, {"measurement": "dopamine release", "setting": "[3]; subcutaneous injections", "result": "increasing dopamine release in the medial preoptic area"}]}
